Assay results from US9956144B2, “Process for particle processing of active pharmaceutical ingredients” (HOVIONE INTER LIMITED, priority 2010, dated 2018).

Experiments:
Type in all cases: physicochemical
[1] = Particle size distribution of the powder produced by high pressure cavitation (HPC) and spray drying; conditions: dry powder after HPC followed by spray drying
Description: The suspension may be passed through a high pressure cavitation apparatus several times until the desired particle size and size distribution is achieved. […] The recirculation may, for example, be performed from 2-30 times (or cycles) depending upon the API. Preferred cycle ranges include from 5 to 25 and 15 to 25. […] As will be clear to those in the art, span is defined by the ratio ((Dv90−Dv10)/Dv50), with Dv being the diameter value at which a defined percentage of the particles (eg 10%, 50% or 90% in the equation) have a diameter equal to or less than the Dv value.

[2] = XRPD of the isolated product (polymorphic form after HPC and spray drying); conditions: after HPC followed by spray drying
[3] = Amorphous content determined by dynamic vapour sorption (DVS); conditions: after HPC followed by spray drying
[4] = Detection of the anhydrous form by near infrared spectroscopy; conditions: after HPC followed by spray drying
[5] = TGA of the isolated product; conditions: after HPC followed by spray drying

| Dv10 [1] [μm] | Dv50 [1] [μm] | Dv90 [1] [μm] | span ((Dv90−Dv10)/Dv50) [1] | amorphous content [3] | anhydrous form [4] | TGA value [5] [%] | Compound | XRPD of the product isolated (polymorphic form retained) [2] |
| --- | --- | --- | --- | --- | --- | --- | --- | --- |
| 0.89 | 1.95 | 3.78 | 1.5 |  |  |  | C[C@@H]1C[C@H]2[C@@H]3C[C@H](F)C4=CC(=O)C=C[C@]4(C)[C@@]3(F)[C@@H](O)C[C@]2(C)[C@@]1(OC(=O)c1ccco1)C(=O)SCF [Fluticasone furoate] | substantially the same as the starting material |
| 1.20 | 2.45 | 4.68 | 1.4 |  |  |  | CCC(=O)O[C@]1(C(=O)SCF)[C@H](C)C[C@H]2[C@@H]3C[C@H](F)C4=CC(=O)C=C[C@]4(C)[C@@]3(F)[C@@H](O)C[C@@]21C [Fluticasone propionate] | substantially the same as the starting material |
| 1.91 | 3.97 | 7.47 | 1.4 | below 1.1% | not detected | 3.0 | C[C@@H]1C[C@H]2[C@@H]3CCC4=CC(=O)C=C[C@]4(C)[C@@]3(Cl)[C@@H](O)C[C@]2(C)[C@@]1(OC(=O)c1ccco1)C(=O)CCl [Mometasone furoate monohydrate] | substantially the same as claimed in U.S. Pat. No. 6,180,781B1 |

| Compound | Dv10 [1] [μm] | Dv50 [1] [μm] | Dv90 [1] [μm] | span ((Dv90−Dv10)/Dv50) [1] | amorphous content [3] | anhydrous form [4] | TGA value [5] [%] | XRPD of the product isolated (polymorphic form retained) [2] |
| --- | --- | --- | --- | --- | --- | --- | --- | --- |
| OCc1cc(C(O)CNCCCCCCOCCCCc2ccccc2)ccc1O (stereo not drawn) [Salmeterol xinafoate] | 0.33 | 1.37 | 3.09 | 2.0 |  |  |  | substantially the same as the starting material |
| C[N+]1(C)[C@@H]2C[C@@H](OC(=O)C(O)(c3cccs3)c3cccs3)C[C@H]1[C@@H]1O[C@@H]12 [Tiotropium bromide] | 0.74 | 2.90 | 5.58 | 1.7 |  |  |  |  |
